Laboratory results reported in patent US20240391948A1, “NOVEL COMPOUND THAT INHIBITS TNF-ALPHA GENERATION AND INFLAMMASOME ACTIVITY AND PREPARATION METHOD THEREFOR” (SHAPERON INC., priority 2021, published 2024).

Assays:
Format in all cases: cell-based
[1] = tested on: J774A.1 (Mouse BALB/c monocyte macrophage cell line) cells; test: LPS+ATP-induced IL-1β secretion inhibition in J774A.1 cells; conditions: J774.A1, 1 μM compound, graded compared to taurodeoxycholic acid (positive control), read-out: IL-1β production inhibition grade
Outline: (§1)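 Grades (A >100%, B 50–100%, C 20–50%, D <20%) express cytokine suppression by 1 μM compound relative to taurodeoxycholic acid. LPS-induced TNF-α and LPS+ATP-induced IL-1β secretion were measured in murine J774A.1 macrophage cells.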

[2] = tested on: U937 cells (human monocytic cell line); test: BzATP-induced IL-1β secretion inhibition in PMA-differentiated U937 cells; conditions: U-937, U937 cells differentiated with PMA, read-out: IL-1β production inhibition grade (IC50)
Outline: (§2)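 Inhibition is given as IC50 (μM) in A-D bands, using distinct thresholds for TNF-α and for IL-1β. Secretion followed Pam2CSK4 stimulation (TNF-α) or BzATP stimulation (IL-1β) of compound-pretreated, PMA-differentiated U937 macrophages.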

[3] = tested on: U937 cells (human monocytic cell line); test: Pam2CSK4-induced TNF-α secretion inhibition in PMA-differentiated U937 cells; conditions: U-937, U937 cells differentiated with PMA, read-out: TNF-α production inhibition grade (IC50)
Outline: as §2

[4] = tested on: J774A.1 (Mouse BALB/c monocyte macrophage cell line) cells; test: LPS-induced TNF-α secretion inhibition in J774A.1 cells; conditions: J774.A1, 1 μM compound, graded compared to taurodeoxycholic acid (positive control), read-out: TNF-α production inhibition grade
Outline: as §1

| SMILES | inhibition at 1 µM [1] | IC50 [2] | IC50 [3] | inhibition at 1 µM [4] |
| --- | --- | --- | --- | --- |
| C[C@H](CCC(=O)N[C@H]1CCCC[C@H]1S(=O)(=O)O)[C@H]1CC[C@H]2[C@@H]3CC[C@@H]4C[C@H](O)CC[C@]4(C)[C@H]3CC[C@]12C [NC10083] | > 100% | < 50 nM | 500 to 1000 nM | > 100% |
| C[C@H](CCC(=O)N[C@H](c1ccccc1)[C@H](C)S(=O)(=O)O)[C@H]1CC[C@H]2[C@@H]3CC[C@@H]4C[C@H](O)CC[C@]4(C)[C@H]3CC[C@]12C [NC10070] | > 100% | < 50 nM | < 500 nM | 50 to 100% |
| C[C@H](CCC(=O)NC[C@@H](C)S(=O)(=O)O)[C@H]1CC[C@H]2[C@@H]3CC[C@@H]4CC(=O)CC[C@]4(C)[C@H]3CC[C@]12C [NC30023] | 50 to 100% | ≥ 200 nM | ≥ 2000 nM | > 100% |
| C[C@H](CCC(=O)N[C@H](CO)CS(=O)(=O)O)[C@H]1CC[C@H]2[C@@H]3CC[C@@H]4C[C@H](O)CC[C@]4(C)[C@H]3CC[C@]12C [NC10081] | > 100% | < 50 nM | 500 to 1000 nM | > 100% |
| CC(C)N(CCS(=O)(=O)O)C(=O)CC[C@@H](C)[C@H]1CC[C@H]2[C@@H]3[C@H](O)C[C@@H]4C[C@H](O)CC[C@]4(C)[C@H]3C[C@H](O)[C@]12C [NC20007] | > 100% | < 50 nM | 1000 to 2000 nM | < 20% |
| C[C@H](CCC(=O)NC[C@H](C)S(=O)(=O)O)[C@H]1CC[C@H]2[C@@H]3CC[C@@H]4C[C@H](O)CC[C@]4(C)[C@H]3CC[C@]12C [NC10078] | > 100% | < 50 nM | < 500 nM | < 20% |
| C[C@H](CCC(=O)N(CCS(=O)(=O)O)C1CCCCC1)[C@H]1CC[C@H]2[C@@H]3CC[C@@H]4C[C@H](O)CC[C@]4(C)[C@H]3C[C@H](O)[C@]12C [NC10004] | 50 to 100% | ≥ 200 nM | ≥ 2000 nM | 20 to 50% |
| C[C@H](CCC(=O)N1CCN(CCS(=O)(=O)O)CC1)[C@H]1CC[C@H]2[C@@H]3CC[C@@H]4C[C@H](O)CC[C@]4(C)[C@H]3C[C@H](O)[C@]12C [NC10010] | > 100% | < 50 nM | < 500 nM | > 100% |
| CC[C@H]1[C@@H](O)[C@@H]2[C@H](C[C@H](O)[C@]3(C)[C@@H]([C@H](C)CCC(=O)N[C@@H](CS(=O)(=O)O)c4ccccc4)CC[C@@H]23)[C@@]2(C)CC[C@@H](O)C[C@@H]12 [NC50019] | 50 to 100% | ≥ 200 nM | 1000 to 2000 nM | < 20% |
| CC(C)C[C@H](CS(=O)(=O)O)NC(=O)CC[C@@H](C)[C@H]1CC[C@H]2[C@@H]3CC[C@@H]4C[C@H](O)CC[C@]4(C)[C@H]3C[C@H](O)[C@]12C [NC10046] | 50 to 100% | 100 to 200 nM | < 500 nM | < 20% |
| C[C@H](CCC(=O)N1CCC[C@H](S(=O)(=O)O)C1)[C@H]1CC[C@H]2[C@@H]3CC[C@@H]4C[C@H](O)CC[C@]4(C)[C@H]3CC[C@]12C [NC10060] | 50 to 100% | ≥ 200 nM | ≥ 2000 nM | < 20% |
| C[C@H](CCC(=O)N[C@@H](Cc1ccccc1)CS(=O)(=O)O)[C@H]1CC[C@H]2[C@@H]3[C@H](O)C[C@@H]4C[C@H](O)CC[C@]4(C)[C@H]3C[C@H](O)[C@]12C [NC20014] | > 100% | < 50 nM | 500 to 1000 nM | < 20% |
| CC(C)[C@H](CS(=O)(=O)O)NC(=O)CC[C@@H](C)[C@H]1CC[C@H]2[C@@H]3CC[C@@H]4CC(=O)CC[C@]4(C)[C@H]3CC[C@]12C [NC30017] | < 20% | ≥ 200 nM | ≥ 2000 nM | < 20% |
| C[C@H](CCC(=O)NC(C)(C)CS(=O)(=O)O)[C@H]1CC[C@H]2[C@@H]3CC[C@@H]4CC(=O)CC[C@]4(C)[C@H]3CC[C@]12C [NC30013] | 50 to 100% | ≥ 200 nM | 500 to 1000 nM | 50 to 100% |
| CC[C@H]1[C@@H](O)[C@@H]2[C@H](C[C@H](O)[C@]3(C)[C@@H]([C@H](C)CCC(=O)N4CCC[C@H]4CS(=O)(=O)O)CC[C@@H]23)[C@@]2(C)CC[C@@H](O)C[C@@H]12 [NC50021] | 20 to 50% | ≥ 200 nM | 500 to 1000 nM | < 20% |
| CC(C)[C@H](CS(=O)(=O)O)NC(=O)CC[C@@H](C)[C@H]1CC[C@H]2[C@@H]3[C@H](O)C[C@@H]4C[C@H](O)CC[C@]4(C)[C@H]3C[C@H](O)[C@]12C [NC20017] | 50 to 100% | ≥ 200 nM | < 500 nM | < 20% |
| C[C@H](CCC(=O)NC(C)(C)CS(=O)(=O)O)[C@H]1CC[C@H]2[C@@H]3CC[C@@H]4C[C@H](O)CC[C@]4(C)[C@H]3C[C@H](O)[C@]12C [NC10029] | > 100% | 50 to 100 nM | ≥ 2000 nM | < 20% |
| CC(C)[C@@H](CS(=O)(=O)O)NC(=O)CC[C@@H](C)[C@H]1CC[C@H]2[C@@H]3CC[C@@H]4CC(=O)CC[C@]4(C)[C@H]3CC[C@]12C [NC30016] | 20 to 50% | ≥ 200 nM | < 500 nM | 20 to 50% |
| C[C@H](CCC(=O)N[C@H]1CCCC[C@H]1S(=O)(=O)O)[C@H]1CC[C@H]2[C@@H]3[C@H](O)C[C@@H]4C[C@H](O)CC[C@]4(C)[C@H]3C[C@H](O)[C@]12C [NC20027] | > 100% | < 50 nM | ≥ 2000 nM | < 20% |
| CC[C@H]1[C@@H](O)[C@@H]2[C@H](CC[C@]3(C)[C@@H]([C@H](C)CCC(=O)N[C@H](C)CS(=O)(=O)O)CC[C@@H]23)[C@@]2(C)CC[C@@H](O)C[C@@H]12 [NC40029] | < 20% | ≥ 200 nM | 1000 to 2000 nM | < 20% |
| C[C@H](CCC(=O)N1CCC[C@H]1CS(=O)(=O)O)[C@H]1CC[C@H]2[C@@H]3CC[C@@H]4C[C@H](O)CC[C@]4(C)[C@H]3C[C@H](O)[C@]12C [NC10037] | 50 to 100% | ≥ 200 nM | < 500 nM | < 20% |
| C[C@H](CCC(=O)N1CCC[C@H]1CS(=O)(=O)O)[C@H]1CC[C@H]2[C@@H]3CC[C@@H]4C[C@H](O)CC[C@]4(C)[C@H]3CC[C@]12C [NC10077] | > 100% | < 50 nM | < 500 nM | < 20% |
| C[C@H](CCC(=O)NC[C@H](C)S(=O)(=O)O)[C@H]1CC[C@H]2[C@@H]3[C@H](O)C[C@@H]4C[C@H](O)CC[C@]4(C)[C@H]3C[C@H](O)[C@]12C [NC20022] | < 20% | < 50 nM | 1000 to 2000 nM | < 20% |
| CC[C@H]1[C@@H](O)[C@@H]2[C@H](CC[C@]3(C)[C@@H]([C@H](C)CCC(=O)N4CCC[C@H](S(=O)(=O)O)C4)CC[C@@H]23)[C@@]2(C)CC[C@@H](O)C[C@@H]12 [NC40009] | < 20% | 100 to 200 nM | 1000 to 2000 nM | < 20% |
| CC[C@H]1[C@@H](O)[C@@H]2[C@H](C[C@H](O)[C@]3(C)[C@@H]([C@H](C)CCC(=O)N4CCC[C@@H](S(=O)(=O)O)C4)CC[C@@H]23)[C@@]2(C)CC[C@@H](O)C[C@@H]12 [NC50010] | > 100% | 100 to 200 nM | ≥ 2000 nM | < 20% |
| C[C@H](CCC(=O)NC(C)(C)CS(=O)(=O)O)[C@H]1CC[C@H]2[C@@H]3CC[C@@H]4C[C@H](O)CC[C@]4(C)[C@H]3CC[C@]12C [NC10064] | < 20% | < 50 nM | < 500 nM | < 20% |
| C[C@H](CCC(=O)N[C@H](Cc1ccccc1)CS(=O)(=O)O)[C@H]1CC[C@H]2[C@@H]3[C@H](O)C[C@@H]4C[C@H](O)CC[C@]4(C)[C@H]3C[C@H](O)[C@]12C [NC20015] | > 100% | < 50 nM | < 500 nM | < 20% |
| C[C@H](CCC(=O)N(CCS(=O)(=O)O)c1ccccc1)[C@H]1CC[C@H]2[C@@H]3CC[C@@H]4C[C@H](O)CC[C@]4(C)[C@H]3C[C@H](O)[C@]12C [NC10052] | 50 to 100% | 50 to 100 nM | 1000 to 2000 nM | 50 to 100% |
| CC(C)[C@@H](CS(=O)(=O)O)NC(=O)CC[C@@H](C)[C@H]1CC[C@H]2[C@@H]3CC[C@@H]4C[C@H](O)CC[C@]4(C)[C@H]3CC[C@]12C [NC10067] | < 20% | ≥ 200 nM | 1000 to 2000 nM | < 20% |
